Residues, ends and D or L forms follow the SMILES beside them. No end group written: not given here.
Experiments:
TLR4 [1] = test: LPS-induced MAPK (ERK, JNK, p38) activation in mouse macrophages (Western analysis); type: cell-based; details: for LPS-induced ERK phosphorylation / LPS-induced JNK activation: 30 min LPS 10 ng/ml
Experimental: Cellular protein extracts were isolated by addition of 240 μL per well cold lysate buffer (20 mM Tris, 50 mM NaCl, 1.5 mM MgCl2, 2 mM EDTA, 10 mM NaF, 2 Mm DTT, 1 mM Na3VO4, 1% Triton). Cells were incubated with lysis solution for 30 min on agitator at 4° C. Lysate was then collected and centrifuged at 14,000 g for 10 minutes at 4° C. After quantification using BioRad protein assay, protein samples were added to Laemmli buffer and then boiled for 10 min. Samples were then resolved by SDS-10% PAGE in Tris/glycine/SDS buffer (25 mM Tris, 250 mM glycine, 0.1% SDS), and transferred onto Immobilon P transfer membranes (Millipore, Bedford, Mass.) (100 V, 1.5 h, 4° C.). Membranes were blocked for 1 h in TBS-T (20 mM Tris-HCl, 150 mM NaCl, 0.1% Tween 20) containing 5% nonfat milk, then probed for overnight at 4° C. with the respective antibodies (Abs) (dilution 1:1000 in TBS-T with 2% BSA). After washing in TBS-T, membranes were incubated with secondary HRP-conjugated, donkey anti-rabbit IgG (1:10,000 dilution in TBS-T with 5% nonfat milk) for 1 h at room temperature. Membranes washed five times in TBS-T before development with ECL reagents (GE Healthcare) according to manufacturer's directions.
HEK293T cells were transfected with indicated plasmids using Superfect Transfection Reagent (Qiagen). Twenty-four hours posttransfection, the cells were lysed using the buffer containing 20 mM HEPES (pH 7.4), 150 mM NaCl, 10 mM NaF, 2 mM Na3VO4, 1 mM EDTA, 1 mM EGTA, 0.5% Triton X-100, 0.1 M DTT, 1 mM PMSF, and protease inhibitor mixture (Roche, Indianapolis, Ind.). Rabbit Ab against phospho-ERK, phospho-JNK, MyD88 (D80F5), STAT1-Y701, total STAT1, and GAPDH were purchased from Cell Signaling Technology (Beverly, Mass.). Rabbit anti-phospho-p38 Ab was purchased from Promega (Madison, Wis.). Goat anti-TLR4 (M−16), rabbit anti-TLR4 (H-80), anti-HA-HRP (F-7), and rabbit anti-b-actin Ab were purchased from Santa Cruz Biotechnology. Mouse anti-Flag M2 and rabbit anti-HA Ab were from Sigma-Aldrich. GFP Ab (A1122) was from Invitrogen. Protein was quantified using Bio-Rad protein quantification kit. Equal amount of protein was loaded and analyzed by 10% SDS-PAGE and immunoblotting. The cell extracts containing equal amount of protein were incubated with 1 μg Ab for 2 h, followed by 4-h incubation with 25 μl protein G agarose beads (Roche); the beads were then washed four times with lysis buffer, boiled in […] sample loading buffer, and analyzed by immunoblotting.
We next examined whether TRAM peptides inhibit the TLR4-mediated p38, ERK, and JNK MAPK activation. Murine macrophages pretreated with peptides for 30 min were challenged with LPS. Cell lysates were collected 30 min post-stimulation and analyzed for MAPK phosphorylation by Western analysis. Consistent with peptide effects on steady-state mRNA, both TM4 and TM6 inhibited activation of all three MAPKs (FIG. 5C). The inhibition of MAPKs by TM4 or TM6 was long lasting; it persisted for at least 1 h after LPS stimulation (data not shown). To characterize further the effects of TRAM peptides on MAPKs, murine macrophages were treated with TRAM peptides, but not challenged by LPS.

TLR4 [2] = test: LPS-induced cytokine secretion by mouse macrophages (ELISA/multiplex); type: cell-based; details: for LPS-induced Rantes production: 6 h supernatants; for Decrease in LPS-induced cytokine production (FIG. 2, 8 panels): LPS 10 ng/ml for 5, 6 or 24 h
Experimental: Cytokine secretion was measured in supernatant samples collected at 6 or 24 h time points and stored at −80° C. Samples were analyzed by a multiplex assay at the University of Maryland Baltimore Cytokine Core Facility using a Luminex 100 reader and Softmax Pro software, or by ELISA kits for mouse IL-6 or TNF-α from BioLegend (San Diego, Calif.) and LT-4000 microplate reader.
A total of 2×10^6 cells was plated in 12-well plates and treated with peptides for 30 min prior to LPS stimulation. TNF-α, IL-1β, IL-6, and IFN-β were measured using ELISA kits from BioLegend (San Diego, Calif.), as recommended by the manufacturer.

C57BL/6J mice = test: In vivo efficiency of decoy peptides (Table 1; LPS challenge in mice); parameters: species or system mouse
Experimental: FIG. 4. Effect of select TRAP decoy peptides on TNF-α and IL-6 in blood following an ip LPS challenge. C57BL/6J mice were injected with TR5, TR6, or TR7 peptide or mock-treated 1 hour before injection of purified E. coli LPS. Peptides and LPS were injected to mice intraperitonealy 10 nmol or 1 μg per gram of animal weight, correspondingly.
FIG. 10. […] (A-E) C57BL/6J mice were injected i.p. with purified Escherichia coli K235 LPS (1 μg/g) or PBS. Peptides (10 nmol/g of animal weight) were injected i.p. (A, B, D, E) or i.v. (C) 1 h before (A, B, and C) or 30 min after (D, E) i.p. injection of LPS. Data in panels A and D show plasma IL-6 and TNF-α levels measured 2 h after LPS challenge. Peptide TM8/9 was used as a non-inhibitory control peptide. Data represent the means±s.e.m. for 6-12 blood samples obtained in at least three independent experiments. *p<0.01. (F, G) C57BL/6J mice were challenged i.p. with a lethal LPS dose (17.5 μg/g). Peptides (10 nmol/g) were injected i.p. 1 h before LPS challenge. […] The statistical significance of changes in mortality and survival time was determined by the Mantel Cox log-rank test using GraphPad Prism software (Version 5.04). *p<0.01.
Eight-week-old C57BL/6J mice were injected with 1 or 17.5 μg/g animal weight of E. coli K235 LPS i.p. Peptides reconstituted in PBS were administered i.p. or i.v. Control groups received equivalent volume of solvent (PBS). The blood samples were collected 1, 2, 4, and 8 h, or 2, 8, and 24 h after LPS challenge. The plasma samples were obtained and kept frozen until TNF-α and IL-6 were measured by ELISA. Survival of animals was monitored every 6-16 h after LPS challenge. All animal experiments were carried out with institutional approval.

Compound: CC[C@H](C)[C@H](NC(=O)[C@H](CCCCN)NC(=O)[C@@H](NC(=O)[C@H](CCC(N)=O)NC(=O)[C@@H](N)CCCNC(=N)N)[C@@H](C)CC)C(=O)N[C@@H](Cc1c[nH]c2ccccc12)C(=O)N[C@@H](Cc1ccccc1)C(=O)N[C@@H](CCC(N)=O)C(=O)N[C@@H](CC(N)=O)C(=O)N[C@@H](CCCNC(=N)N)C(=O)N[C@@H](CCCNC(=N)N)C(=O)N[C@@H](CCSC)C(=O)N[C@@H](CCCCN)C(=O)N[C@@H](Cc1c[nH]c2ccccc12)C(=O)N[C@@H](CCCCN)C(=O)N[C@@H](CCCCN)C(=O)N[C@@H](CCC(=O)O)C(=O)N[C@@H](CC(C)C)C(=O)N[C@@H](CS)C(=O)N[C@@H](CCC(N)=O)C(=O)N[C@@H](C)C(=O)N[C@@H](CC(C)C)C(=O)N[C@@H](CO)C(=O)N[C@@H](CCCNC(=N)N)C(=O)N[C@@H](CO)C(=O)N[C@@H](Cc1c[nH]cn1)C(=O)N[C@@H](CS)C(=O)N[C@@H](CCCNC(=N)N)C(=O)O [TR5] (H-RQIKIWFQNRRMKWKKELCQALSRSHCR-OH)
- LPS-induced ERK phosphorylation (TLR4 [1]; 20 μM peptide): potently inhibited
- LPS-induced Rantes production (TLR4 [2]): inhibited
- Decrease in LPS-induced cytokine production (FIG. 2, 8 panels) (TLR4 [2]): statistically significant
- In vivo efficiency (C57BL/6J mice): yes, i.p.

Compound: RQIKIWFQNRRMKWKKAAYPPELRFMYYVD [TR9]
- LPS-induced ERK phosphorylation (TLR4 [1]; 20 μM peptide): potently inhibited
- LPS-induced JNK activation (TLR4 [1]; 20 μM peptide): inhibited
- LPS-induced Rantes production (TLR4 [2]): inhibited
- Decrease in LPS-induced cytokine production (FIG. 2, 8 panels) (TLR4 [2]): statistically significant

Compound: RQIKIWFQNRRMKWKKCLQDAIDHSGFT [TF5]
- LPS-induced p38, ERK, and JNK MAPK activation (TLR4 [1]; lysates 30 min after LPS): inhibit
- LPS-induced cytokine secretion (TLR4 [2]; 5 or 20 μM peptide, LPS 100 ng/ml, supernatants 24 h): inhibit
- In vivo efficiency (C57BL/6J mice): Yes, i.p.

Compound: RQIKIWFQNRRMKWKKEGSQASLRCF [TR3]
- LPS-induced ERK phosphorylation (TLR4 [1]; 20 μM peptide): potently inhibited
- LPS-induced JNK activation (TLR4 [1]; 20 μM peptide): apparent absence of JNK inhibition
- LPS-induced Rantes production (TLR4 [2]): inhibited
- Decrease in LPS-induced cytokine production (FIG. 2, 8 panels) (TLR4 [2]): statistically significant

Compound: RQIKIWFQNRRMKWKKGGFYQVKEAVIHY [TR11]
- LPS-induced ERK phosphorylation (TLR4 [1]; 20 μM peptide): potently inhibited
- LPS-induced JNK activation (TLR4 [1]; 20 μM peptide): inhibited
- LPS-induced Rantes production (TLR4 [2]): inhibited
- Decrease in LPS-induced cytokine production (FIG. 2, 8 panels) (TLR4 [2]): statistically significant

Compound: RQIKIWFQNRRMKWKKPGFLRDPWCKYQML [TR6]
- LPS-induced ERK phosphorylation (TLR4 [1]; 20 μM peptide): potently inhibited
- LPS-induced JNK activation (TLR4 [1]; 20 μM peptide): apparent absence of JNK inhibition
- LPS-induced activation of p38 and ERK MAPKs (TLR4 [1]; 20 μM peptide, LPS 30 min): potently inhibited
- LPS-induced Rantes production (TLR4 [2]): inhibited
- Decrease in LPS-induced cytokine production (FIG. 2, 8 panels) (TLR4 [2]): statistically significant
- In vivo efficiency (C57BL/6J mice): yes, i.p.
